This is an account of results in patent US20090036540A1, “Guanylhydrazones in Methods of Treatment or Diagnosis as Modulators of Signal Transduction” (Cytokine PharmaSciences, Inc., priority 2003, published 2009).

In one series the test system is pMek1/2. Put plainly: Immunohistochemistry of biopsies from Crohn's disease patients for pMek1/2 expression. The class given is in vivo, human. As to conditions: before vs after treatment. How it is done: Biopsies obtained from Crohn's disease patients (before and after Semapimod treatment) who participated in the Semapimod-pilot study in the AMC, were analyzed by immunohistochemistry.
Biopsies obtained from Crohn's disease patients (before and after treatment) who participated in the Semapimod-pilot study performed in our department, were analyzed for pMek1/2 expression (the substrate of Raf) by immunohistochemistry (FIGS. 8-9).

For series [1] the following is noted: steroid- and infliximab-resistant Crohn's disease; cited from earlier work.
The next series concerns Raf kinase. Nature of the series: Raf in vitro kinase assay (pMek immunoblot). In kind it is biochemical. As to conditions: active Raf kinase, 1 μM Semapimod for 5 and 10 minutes. The protocol: A commercially available in vitro kinase kit (Upstate, cat#: 17-360) was used to study the direct effect of Semapimod on Raf kinase activity. […] Furthermore, active Raf together with Mek, without Semapimod, served as a positive control. Active Raf without the Mek-substrate, left untreated, served as a negative control. The in vitro kinase reaction was performed at 30 C.° for 20 minutes. Sample buffer was added to terminate the reaction, and loaded on […] SDS-PAGE. The immunoblot was analyzed for pMek expression.
Pan-Raf protein expression was analyzed to test for equal loading. Two experiments were performed and similar results were obtained.
In general terms: A western blot detects proteins with antibodies after separation by electrophoresis.

For series [2], the system named is 4/4 macrophages. Put plainly: Western blot of LPS-stimulated 4/4 macrophages for MAPK signaling molecules. The class given is cell-based, murine. As to conditions: 0.1 and 1 μM, 1 hour pre-incubation, LPS 100 ng/ml 15 minutes. The protocol:
4/4 macrophages were used for in vitro experiments and western blot analysis. An in vitro kinase assay was performed to reconfirm findings obtained with western blotting. […] 4/4 macrophages were grown to 70% confluence, pre-incubated for 1 hour with Semapimod (0.1 and 1 μM) and stimulated with LPS (100 ng/ml) for 15 minutes. Cells were harvested in sample buffer and whole cell lysates were loaded onto 10% SDS-PAGE and subsequently transferred to a PVDF membrane. Blots were stained with phospho-specific antibodies for various MAPK signaling molecules. […] Importantly, pRaf protein levels and pPak, upstream of Raf, were not affected due to Semapimod incubation. […] FIG. 6 Western blot: Reduced pP38, pJnk, pErk in 4/4 macrophages treated with Semapimod (1 and 0.1 μM) in LPS present conditions was seen. Moreover, the phosphorylation status of MKK4/7 (upstream of Jnk), and Mek1/2 (upstream of Erk) was affected due to Semapimod treatment. pRaf expression was not influenced by Semapimod. To test for equal loading, western blots were analyzed for actin expression. Similar results were obtained in three independent experiments.

The subject of series [3] is 4/4 macrophages. Nature of the series: Cytotoxic effect in 4/4 macrophages. The class given is cell-based, murine. The conditions noted are these: Semapimod concentrations ≦1 μM.

Entries after “also recorded” stand apart in the source; their conditions may differ.

Regarding `C/C(=N\NC(=N)N)c1cc(NC(=O)CCCCCCCCC(=O)Nc2cc(/C(C)=N/NC(=N)N)cc(/C(C)=N/NC(=N)N)c2)cc(/C(C)=N/NC(=N)N)c1` [Semapimod], in the series with pMek1/2 (Crohn's disease patients who responded (n=5), p=0.0348), the “pMek1/2 expression in biopsies, responders” value is “significant decrease”. Also, the “pMek1/2 expression in biopsies, nonresponder” value in the series on pMek1/2 (one nonresponder (patient 012)) is on record as “increased pMek1/2 expression; also recorded: not affected”. The “clinical effect in Crohn's disease” value in series [1] is “induces clinical remission and endoscopal healing”. Moreover, the Raf kinase activity result in the series on Raf kinase is “inhibited”. Also, the “pMek1/2 expression in in vitro kinase assay” value with Raf kinase (inactive Mek-substrate) is listed as “reduced pMek1/2 expression”. Moreover, in the series on 4/4 macrophages [2], the “expression of pMKK4/7” value is listed as “reduced expression”; the “expression of pMek1/2” value is given as “reduced expression”; the “pPak, upstream of Raf” value was “not affected”; the pRaf protein levels entry was “not affected”. In the series on 4/4 macrophages [2], the phosphorylated-Erk1/2 entry is on record as “decrease”, the phosphorylated-Jnk entry is recorded as “decrease” and the phosphorylated-P38 result was “decrease”. Besides, the cytotoxic effect entry with 4/4 macrophages [3] was “did not have a cytotoxic effect”.
